Test results taken from PMC11990670, “Exploring the Volatility, Phase Transitions, and Solubility Properties of Five Halogenated Benzaldehydes” (Molecules, 2025).
Values after ≈ are worked out from the molar mass of the structure shown. Read-outs that look alike come from different tables or passages of the source.

Key:
[1] = Equilibrium solubility in water, saturation shake-flask method with UV-vis; conditions: 25 °C, thermodynamic from solid
Method: The concentration was measured by absorbances at 260 nm for 4-chlorobenzaldehyde, 263 nm for 4-bromobenzaldehyde and 2,4-dichlorobenzaldehyde, 297 nm for 2,6-dichlorobenzaldehyde, and 306 nm for 2,3-dichlorobenzaldehyde, using a Cary-60 UV–vis (Agilent) spectrophotometer. X-ray diffraction (XRD) and differential scanning calorimetry of residual solids were used to identify the eventual phase transformations. The purified samples of each compound studied were used for all experimental determinations, including the solubility measurements. After reaching the equilibrium, the residual solid was dried and analyzed using both DSC and XRD. The melting properties obtained from DSC were compared with those of the original purified sample, following the same procedure for the XRD analysis. […] As an example, the supporting information includes two thermograms and two XRD patterns for 2,4-dichlorobenzaldehyde (Figures S1 and S2). […] Equation (4) was derived from Equation (5), which is widely applicable to the solubility of solids.(4) ΔhydrGm°/kJ·mol^−1=9.17−5.71·log10(Scr/mol·m^−3)−ΔcrgGm°/kJ·mol^−1 (5) S=p^°/RTexpΔcrgGm°+ΔhydrGm°/−RT
An excess amount of each compound was added to a known volume of water in triplicate. […] After stirring, the solid phase was allowed to settle for 2 h. The pH of the saturated solutions was measured using a Mettler Toledo (Greifensee, Switzerland) FiveEasy F20 pH Meter calibrated with standard aqueous solutions (pH 7.00 and 4.01 or 10.1). Those solutions were then filtered through a 0.22 μm syringe hydrophilic filter (13 mm, PTFE, Labfil, Zhejiang, China) and diluted to the required concentration. The concentration of the compounds, expressed in molarity, was measured by absorbances using a Cary-60 UV–vis spectrophotometer (Agilent Technologies, Santa Clara, CA, USA) at 298.15 K (single cell Peltier accessory, ±0.15 K). The results reported in Table 6 are averaged from at least three replicates. Calibration was performed using solutions of known concentrations of each substance in water. These solutions were prepared by adding a precise mass of the substance and a specific volume of the solvent to a flask, then mixing until the substance was fully dissolved. The absorbance of these solutions was measured, and calibration curves were created.

[2] = Thermodynamic properties of sublimation and vaporization from Clarke and Glew fit of vapor pressures
Source text: The experimental crystalline and liquid vapor pressures were independently fitted by the Clarke and Glew Equation (1) in its truncated form:(1) Rlnp/p^°=−ΔcdgGm°θ/θ+ΔcdgHm°θ1/θ−1/T+ΔcdgCp,m°θθ/T−1+lnT/θ where R is the molar gas constant, p is the vapor pressure at the temperature T, p° is a selected reference pressure (p° = 10^5 Pa in this work), and θ is a reference temperature. The differences between gaseous and condensed phases of standard molar Gibbs energy, enthalpy, and the isobaric heat capacity are represented, respectively, by ΔcdgGm° , ΔcdgHm° , and ΔcdgCp,m° .
The values of ΔcdgCp,m° are generally achieved only when accurate experimental data measured over ca. 50 K are reachable. […] For comparison reasons, the values of ΔcrgCp,m° were also calculated as ΔcrgCp,m°(θ)=Cp,m°(g)−Cp,m°(cr) , where the terms Cp,m°(g) and Cp,m°(cr) are, respectively, the gas and crystalline isobaric molar heat capacities. […] The crystalline molar heat capacities, Cp,m°(cr) , were determined at different temperatures using differential scanning calorimetry, enabling the fit to second-order polynomials in temperature, represented by Equation (3) and reported in Table 3. […] The values of Cp,m°(cr,298.15 K) were derived from these equations, allowing ΔcrgCp,m°(298.15 K) to be calculated.

[3] = cited from earlier work
[4] = crystalline phase, θ = 298.15 K
[5] = crystalline phase, θ = 298.15 K, p° = 10^5 Pa
[6] = crystalline phase, θ = 315.46 K (mean temperature)
[7] = crystalline phase, θ = 342.99 K (triple point)
[8] = liquid phase including supercooled liquid, θ = 298.15 K
[9] = liquid phase including supercooled liquid, θ = 298.15 K, p° = 10^5 Pa
[10] = liquid phase, θ = 342.99 K (triple point)
[11] = liquid phase, θ = 358.95 K (mean temperature)
[12] = crystalline phase, θ = 307.92 K (mean temperature)
[13] = crystalline phase, θ = 334.82 K (triple point)
[14] = liquid phase, θ = 334.82 K (triple point)
[15] = liquid phase, θ = 354.31 K (mean temperature)
[16] = crystalline phase, θ = 313.72 K (mean temperature)
[17] = crystalline phase, θ = 343.90 K (triple point)
[18] = liquid phase, θ = 343.90 K (triple point)
[19] = liquid phase, θ = 350.04 K (mean temperature)
[20] = crystalline phase, θ = 303.88 K (mean temperature)
[21] = crystalline phase, θ = 330.02 K (triple point)
[22] = liquid phase, θ = 330.02 K (triple point)
[23] = liquid phase, θ = 345.37 K (mean temperature)

Structure (SMILES): O=Cc1c(Cl)cccc1Cl [2,6-Dichlorobenzaldehyde]
- solubility at 72 h [1]: 1130 µM (≈ 197 µg/mL)
- triple point pressure ptp ([2]; Ttp = 342.99 K): 85.7 Pa
- p (Equation (1)) vapor pressure [2, 4]: 0.95 Pa
- ΔcdgGm°(θ) standard molar Gibbs energy of sublimation [2, 5]: 6.85 ± 0.0024 kcal/mol
- ΔcdgHm°(θ) standard molar enthalpy of sublimation [2, 5]: 20.5 ± 0.096 kcal/mol
- ΔcdgSm°(θ) (Equation (2)) standard molar entropy of sublimation [2, 5]: 192.0 ± 1.3 J·K^−1·mol^−1
- p (Equation (1)) vapor pressure [2, 6]: 6.35 Pa
- ΔcdgGm°(θ) standard molar Gibbs energy of sublimation [2, 6]: 6.059 ± 0.0024 kcal/mol
- ΔcdgHm°(θ) standard molar enthalpy of sublimation [2, 6]: 20.4 ± 0.024 kcal/mol
- p (Equation (1)) vapor pressure [2, 7]: 85.7 Pa
- ΔcdgGm°(θ) standard molar Gibbs energy of sublimation [2, 7]: 4.814 ± 0.0048 kcal/mol
- ΔcdgHm°(θ) standard molar enthalpy of sublimation [2, 7]: 20.2 ± 0.17 kcal/mol
- p (Equation (1)) vapor pressure [2, 8]: 2.84 Pa
- ΔcdgGm°(θ) standard molar Gibbs energy of vaporization [2, 9]: 6.202 ± 0.0239 kcal/mol
- ΔcdgHm°(θ) standard molar enthalpy of vaporization [2, 9]: 15.8 ± 0.287 kcal/mol
- ΔcdgSm°(θ) (Equation (2)) standard molar entropy of vaporization [2, 9]: 135.0 ± 4.0 J·K^−1·mol^−1
- p (Equation (1)) vapor pressure [2, 10]: 85.7 Pa
- ΔcdgGm°(θ) standard molar Gibbs energy of vaporization [2, 10]: 4.814 ± 0.0048 kcal/mol
- ΔcdgHm°(θ) standard molar enthalpy of vaporization [2, 10]: 15 ± 0.072 kcal/mol
- p (Equation (1)) vapor pressure [2, 11]: 225 Pa
- ΔcdgGm°(θ) standard molar Gibbs energy of vaporization [2, 11]: 4.348 ± 0.0024 kcal/mol
- ΔcdgHm°(θ) standard molar enthalpy of vaporization [2, 11]: 14.7 ± 0.024 kcal/mol

Structure (SMILES): O=Cc1cccc(Cl)c1Cl [2,3-Dichlorobenzaldehyde]
- solubility at 72 h [1]: 853 µM (≈ 149 µg/mL)
- triple point pressure ptp ([2]; Ttp = 334.82 K): 87.6 Pa
- p (Equation (1)) vapor pressure [2, 4]: 2.47 Pa
- ΔcdgGm°(θ) standard molar Gibbs energy of sublimation [2, 5]: 6.286 ± 0.0024 kcal/mol
- ΔcdgHm°(θ) standard molar enthalpy of sublimation [2, 5]: 19.4 ± 0.072 kcal/mol
- ΔcdgSm°(θ) (Equation (2)) standard molar entropy of sublimation [2, 5]: 184.1 ± 1.0 J·K^−1·mol^−1
- p (Equation (1)) vapor pressure [2, 12]: 6.98 Pa
- ΔcdgGm°(θ) standard molar Gibbs energy of sublimation [2, 12]: 5.856 ± 0.0024 kcal/mol
- ΔcdgHm°(θ) standard molar enthalpy of sublimation [2, 12]: 19.4 ± 0.048 kcal/mol
- p (Equation (1)) vapor pressure [2, 13]: 87.6 Pa
- ΔcdgGm°(θ) standard molar Gibbs energy of sublimation [2, 13]: 4.685 ± 0.0072 kcal/mol
- ΔcdgHm°(θ) standard molar enthalpy of sublimation [2, 13]: 19.2 ± 0.096 kcal/mol
- p (Equation (1)) vapor pressure [2, 8]: 5.81 Pa
- ΔcdgGm°(θ) standard molar Gibbs energy of vaporization [2, 9]: 5.779 ± 0.019 kcal/mol
- ΔcdgHm°(θ) standard molar enthalpy of vaporization [2, 9]: 15 ± 0.263 kcal/mol
- ΔcdgSm°(θ) (Equation (2)) standard molar entropy of vaporization [2, 9]: 129.2 ± 3.7 J·K^−1·mol^−1
- p (Equation (1)) vapor pressure [2, 14]: 87.6 Pa
- ΔcdgGm°(θ) standard molar Gibbs energy of vaporization [2, 14]: 4.685 ± 0.0072 kcal/mol
- ΔcdgHm°(θ) standard molar enthalpy of vaporization [2, 14]: 14.3 ± 0.096 kcal/mol
- p (Equation (1)) vapor pressure [2, 15]: 282 Pa
- ΔcdgGm°(θ) standard molar Gibbs energy of vaporization [2, 15]: 4.132 ± 0.0024 kcal/mol
- ΔcdgHm°(θ) standard molar enthalpy of vaporization [2, 15]: 14 ± 0.024 kcal/mol

Structure (SMILES): O=Cc1ccc(Cl)cc1Cl [2,4-Dichlorobenzaldehyde]
- solubility at 72 h [1]: 821 µM (≈ 144 µg/mL)
- triple point pressure ptp ([2]; Ttp = 343.90 K): 2.01 × 10^2 Pa
- p (Equation (1)) vapor pressure [2, 4]: 2.64 Pa
- ΔcdgGm°(θ) standard molar Gibbs energy of sublimation [2, 5]: 6.245 ± 0.0024 kcal/mol
- ΔcdgHm°(θ) standard molar enthalpy of sublimation [2, 5]: 19.5 ± 0.048 kcal/mol
- ΔcdgSm°(θ) (Equation (2)) standard molar entropy of sublimation [2, 5]: 185.7 ± 0.7 J·K^−1·mol^−1
- p (Equation (1)) vapor pressure [2, 16]: 13.5 Pa
- ΔcdgGm°(θ) standard molar Gibbs energy of sublimation [2, 16]: 5.557 ± 0.0024 kcal/mol
- ΔcdgHm°(θ) standard molar enthalpy of sublimation [2, 16]: 19.4 ± 0.024 kcal/mol
- p (Equation (1)) vapor pressure [2, 17]: 201 Pa
- ΔcdgGm°(θ) standard molar Gibbs energy of sublimation [2, 17]: 4.242 ± 0.0048 kcal/mol
- ΔcdgHm°(θ) standard molar enthalpy of sublimation [2, 17]: 19.1 ± 0.12 kcal/mol
- p (Equation (1)) vapor pressure [2, 8]: 7.95 Pa
- ΔcdgGm°(θ) standard molar Gibbs energy of vaporization [2, 9]: 5.593 ± 0.012 kcal/mol
- ΔcdgHm°(θ) standard molar enthalpy of vaporization [2, 9]: 14.8 ± 0.17 kcal/mol
- ΔcdgSm°(θ) (Equation (2)) standard molar entropy of vaporization [2, 9]: 129.1 ± 2.4 J·K^−1·mol^−1
- p (Equation (1)) vapor pressure [2, 18]: 201 Pa
- ΔcdgGm°(θ) standard molar Gibbs energy of vaporization [2, 18]: 4.242 ± 0.0048 kcal/mol
- ΔcdgHm°(θ) standard molar enthalpy of vaporization [2, 18]: 14 ± 0.024 kcal/mol
- p (Equation (1)) vapor pressure [2, 19]: 289 Pa
- ΔcdgGm°(θ) standard molar Gibbs energy of vaporization [2, 19]: 4.068 ± 0.0024 kcal/mol
- ΔcdgHm°(θ) standard molar enthalpy of vaporization [2, 19]: 13.9 ± 0.024 kcal/mol

Structure (SMILES): O=Cc1ccc(Br)cc1 [4-Bromobenzaldehyde]
- solubility at 72 h [1]: 3710 µM (≈ 687 µg/mL)
- triple point pressure ptp ([2]; Ttp = 330.02 K): 99.1 Pa
- p (Equation (1)) vapor pressure [2, 4]: 4.59 Pa
- ΔcdgGm°(θ) standard molar Gibbs energy of sublimation [2, 5]: 5.918 ± 0.0024 kcal/mol
- ΔcdgHm°(θ) standard molar enthalpy of sublimation [2, 5]: 19 ± 0.048 kcal/mol
- ΔcdgSm°(θ) (Equation (2)) standard molar entropy of sublimation [2, 5]: 183.3 ± 0.7 J·K^−1·mol^−1
- p (Equation (1)) vapor pressure [2, 20]: 8.40 Pa
- ΔcdgGm°(θ) standard molar Gibbs energy of sublimation [2, 20]: 5.667 ± 0.0024 kcal/mol
- ΔcdgHm°(θ) standard molar enthalpy of sublimation [2, 20]: 18.9 ± 0.048 kcal/mol
- p (Equation (1)) vapor pressure [2, 21]: 99.1 Pa
- ΔcdgGm°(θ) standard molar Gibbs energy of sublimation [2, 21]: 4.536 ± 0.0072 kcal/mol
- ΔcdgHm°(θ) standard molar enthalpy of sublimation [2, 21]: 18.7 ± 0.17 kcal/mol
- p (Equation (1)) vapor pressure [2, 8]: 9.57 Pa
- ΔcdgGm°(θ) standard molar Gibbs energy of vaporization [2, 9]: 5.483 ± 0.012 kcal/mol
- ΔcdgHm°(θ) standard molar enthalpy of vaporization [2, 9]: 14.6 ± 0.17 kcal/mol
- ΔcdgSm°(θ) (Equation (2)) standard molar entropy of vaporization [2, 9]: 128.3 ± 2.4 J·K^−1·mol^−1
- p (Equation (1)) vapor pressure [2, 22]: 99.1 Pa
- ΔcdgGm°(θ) standard molar Gibbs energy of vaporization [2, 22]: 4.536 ± 0.0072 kcal/mol
- ΔcdgHm°(θ) standard molar enthalpy of vaporization [2, 22]: 14 ± 0.072 kcal/mol
- p (Equation (1)) vapor pressure [2, 23]: 254 Pa
- ΔcdgGm°(θ) standard molar Gibbs energy of vaporization [2, 23]: 4.101 ± 0.0024 kcal/mol
- ΔcdgHm°(θ) standard molar enthalpy of vaporization [2, 23]: 13.7 ± 0.024 kcal/mol
- water solubility, estimated value ([3]; ALI method): 7060 µM (≈ 1310 µg/mL)
- water solubility, estimated value ([3]; ESOL method): 1680 µM (≈ 311 µg/mL)
- water solubility, estimated value ([3]; SILICO-IT method): 634 µM (≈ 117 µg/mL)
